This is an account of results in patent US11590188B2, “Composition for the treatment of urinary tract infections” (priority 2020, dated 2023).

Data set [1] is described as follows: Earlier antibiotic treatment of the Example 2 subjects. The data set is classed as in vivo, human. To be noted: 500 mg twice daily. An excerpt:
This can be compared to the subjects' situation before the study.

The conditions of data set [2]: single ingredient, doses of 15-24 grams/day; cited from earlier work.

Read-outs that look alike come from different tables or passages of the source.

Take `CC1=C(C(=O)O)N2C(=O)[C@@H](NC(=O)[C@H](N)c3ccccc3)[C@H]2SC1` [Cephalexin]: the Side effects result in data set [1] (6-9 months) was “nausea, diarrhoea and yeast infections (oral and vaginal)”. The “Recurrence of UTI symptoms” value in data set [1] (after 6-9 months) is reported as “UTI symptoms had reoccurred after the course of antibiotics was completed”.

On to `O=C[C@@H](O)[C@@H](O)[C@H](O)[C@H](O)CO` [D-mannose], for which the Side effects entry in data set [2] is “bloating, gas and diarrhea”.
